# Measured values reported in US20080200536A1, “Pharmaceutical Formulation with High Stability and Dissolution and Manufacturing Process” (BORAM PHARM.CO., LTD, priority 2005, published 2008).
# Test: Dissolution rate of orlistat powder raw material
# Assay type: physicochemical
# Description: Orlistat is a drug having a melting point as low as 43° C., and is commercially available in a powder form. The dissolution rate of orlistat undergoing no denaturation under good storage conditions is about 60%. […] In addition, when raw materials of orlistat are exposed to high temperature during transport, the powder particles of orlistat rapidly aggregate. Thereafter, the aggregates remain even when being cooled, causing damage to the dissolution of orlistat.
compound,measurement,setting,value
CCCCCCCCCCC[C@@H](C[C@@H]1OC(=O)[C@H]1CCCCCC)OC(=O)[C@H](CC(C)C)NC=O [orlistat],dissolution rate,"orlistat raw material exposed to high temperature during transport, particles aggregated",≤ 40%
same,dissolution rate,orlistat undergoing no denaturation under good storage conditions,about 60%
